Results from patent publication US8017597B2, “Analgesic agent comprising cyclic phosphatidic acid derivative” (Ochanomizu University, priority 2006, dated 2011).
“Also recorded” adds a separate entry of the source. Where two headings read alike, the source gives them in different places.

Tests used:
[1] = test system: anesthetized rats
[2] = test system: anesthetized rats; experiment: Heart rate increase reaction induced by frequent electrical stimulation of hindlimb afferent nerves, i.v. administration; type: in vivo, rat; settings: for suppressive effect on heart rate increase: anesthetized rats, i.v., electrical stimulation of lower extremity nerves
From the text: Among (1) “heart rate increase reaction induced by frequent electrical stimulation of hindlimb afferent nerves” employed herein is not induced by weak stimulation intensity (0.2 V) that excites only thick medullated A-fibers, but induced by stimulation intensity (1 V) that is the same or higher than the excitation threshold of thin medullated A-fibers. When the stimulation intensity is further increased (10 V) so as to cause excitation of nonmedullated C fibers, the amplification of the heart rate increase reaction is increased to reach the maximum level (Sato et al, J Auton Nery Syst 4: 231, 1981; Uchida et al, Neurosci Left 269: 161, 1999). Noxious information is transmitted by A-fibers and C fibers. Therefore, such heart rate increase reaction induced by excitation of somatic afferent A-fibers and C fibers can be an indicator for evaluation of analgesic effects.
Blood pressure waveform was collected using a pulse rate tachometer (AT601-O, Nihon Kohden) and the heart rate was recorded continuously.

[3] = Arterial blood pressure after i.v. cPA administration; type: in vivo, rat
From the text: The right femoral artery was cannulated. Arterial blood pressure was continuously recorded from the intra-arterial cannula using a pressure transducer (TP-400T, Nihon Kohden, Tokyo).

[4] = test system: anesthetized cats; settings: cited from earlier work
[5] = test system: DNA polymerase α of eukaryotic cells; settings: cited from earlier work
[6] = 50 μg/Kg i.v., 10 to 15 minutes after administration
[7] = 100 μg/Kg i.v., 10 to 15 minutes after administration
[8] = 200 μg/Kg i.v., 10 to 15 minutes after administration

Sequence of DNA polymerase α of eukaryotic cells (P09884 whole entry): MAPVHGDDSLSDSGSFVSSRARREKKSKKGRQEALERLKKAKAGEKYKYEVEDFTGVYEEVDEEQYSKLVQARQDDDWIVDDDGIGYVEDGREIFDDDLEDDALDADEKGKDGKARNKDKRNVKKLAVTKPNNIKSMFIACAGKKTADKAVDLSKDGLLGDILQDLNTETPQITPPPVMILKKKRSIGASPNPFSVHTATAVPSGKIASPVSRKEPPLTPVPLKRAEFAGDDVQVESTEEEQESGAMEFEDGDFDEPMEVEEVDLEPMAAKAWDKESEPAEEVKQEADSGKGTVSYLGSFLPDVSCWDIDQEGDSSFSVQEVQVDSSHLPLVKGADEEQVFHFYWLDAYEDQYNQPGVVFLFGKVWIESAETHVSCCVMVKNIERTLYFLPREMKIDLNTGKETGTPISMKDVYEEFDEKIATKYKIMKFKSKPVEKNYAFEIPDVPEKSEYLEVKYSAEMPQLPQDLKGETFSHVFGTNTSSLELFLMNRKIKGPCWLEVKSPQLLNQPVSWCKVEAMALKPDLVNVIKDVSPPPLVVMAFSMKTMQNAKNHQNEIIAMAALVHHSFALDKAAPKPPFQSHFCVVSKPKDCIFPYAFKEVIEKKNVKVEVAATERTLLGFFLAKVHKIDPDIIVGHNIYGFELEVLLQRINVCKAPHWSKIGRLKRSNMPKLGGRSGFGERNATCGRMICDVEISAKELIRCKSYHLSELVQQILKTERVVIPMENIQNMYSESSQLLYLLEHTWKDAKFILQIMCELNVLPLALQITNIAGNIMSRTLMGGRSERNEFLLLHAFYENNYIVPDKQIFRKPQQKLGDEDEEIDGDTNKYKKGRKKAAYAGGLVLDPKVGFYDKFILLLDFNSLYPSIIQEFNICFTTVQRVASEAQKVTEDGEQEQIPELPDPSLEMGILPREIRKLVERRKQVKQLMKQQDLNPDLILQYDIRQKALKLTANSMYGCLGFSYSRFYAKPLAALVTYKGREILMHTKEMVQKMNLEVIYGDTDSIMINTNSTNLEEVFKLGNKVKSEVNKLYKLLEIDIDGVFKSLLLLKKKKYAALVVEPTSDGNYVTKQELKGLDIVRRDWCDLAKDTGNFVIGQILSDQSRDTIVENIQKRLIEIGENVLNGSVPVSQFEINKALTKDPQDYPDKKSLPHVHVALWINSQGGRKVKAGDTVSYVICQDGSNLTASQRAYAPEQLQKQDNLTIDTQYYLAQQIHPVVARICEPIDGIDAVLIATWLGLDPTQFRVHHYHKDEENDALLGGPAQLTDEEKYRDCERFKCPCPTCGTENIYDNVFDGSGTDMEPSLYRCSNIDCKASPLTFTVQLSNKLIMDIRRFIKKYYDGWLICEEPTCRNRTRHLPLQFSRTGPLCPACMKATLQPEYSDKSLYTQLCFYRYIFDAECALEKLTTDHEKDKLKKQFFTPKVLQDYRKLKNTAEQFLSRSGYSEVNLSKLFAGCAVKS
Sequence of DNA polymerase α of eukaryotic cells (Q14181 whole entry partner): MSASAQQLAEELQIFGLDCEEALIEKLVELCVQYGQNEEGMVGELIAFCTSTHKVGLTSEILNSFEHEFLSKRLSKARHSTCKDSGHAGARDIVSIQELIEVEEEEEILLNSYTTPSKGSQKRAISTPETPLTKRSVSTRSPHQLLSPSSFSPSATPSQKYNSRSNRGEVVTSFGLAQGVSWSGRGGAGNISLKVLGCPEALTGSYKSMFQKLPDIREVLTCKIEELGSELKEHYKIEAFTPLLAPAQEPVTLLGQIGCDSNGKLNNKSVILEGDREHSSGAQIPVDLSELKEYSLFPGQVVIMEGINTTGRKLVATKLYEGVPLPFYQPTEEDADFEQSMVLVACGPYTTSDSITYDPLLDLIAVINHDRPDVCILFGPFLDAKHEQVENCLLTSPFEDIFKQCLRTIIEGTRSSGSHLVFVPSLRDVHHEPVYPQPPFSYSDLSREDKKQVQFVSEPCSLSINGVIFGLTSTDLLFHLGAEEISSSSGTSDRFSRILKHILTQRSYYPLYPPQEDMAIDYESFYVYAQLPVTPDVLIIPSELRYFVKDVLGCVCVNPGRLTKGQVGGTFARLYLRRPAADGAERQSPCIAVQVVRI
Sequence of DNA polymerase α of eukaryotic cells (P49642 whole entry partner): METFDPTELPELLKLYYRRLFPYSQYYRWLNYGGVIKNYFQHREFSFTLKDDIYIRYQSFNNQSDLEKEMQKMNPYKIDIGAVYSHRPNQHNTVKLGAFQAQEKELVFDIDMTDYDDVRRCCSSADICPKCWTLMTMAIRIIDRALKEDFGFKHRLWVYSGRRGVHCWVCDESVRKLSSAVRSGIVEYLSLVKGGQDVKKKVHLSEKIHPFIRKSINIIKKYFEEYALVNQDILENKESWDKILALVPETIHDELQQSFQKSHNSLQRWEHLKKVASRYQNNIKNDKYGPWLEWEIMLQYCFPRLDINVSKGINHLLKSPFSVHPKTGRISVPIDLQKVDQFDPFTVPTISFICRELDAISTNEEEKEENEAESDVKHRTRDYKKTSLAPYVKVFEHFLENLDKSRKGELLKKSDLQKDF
Sequence of DNA polymerase α of eukaryotic cells (P49643 whole entry partner): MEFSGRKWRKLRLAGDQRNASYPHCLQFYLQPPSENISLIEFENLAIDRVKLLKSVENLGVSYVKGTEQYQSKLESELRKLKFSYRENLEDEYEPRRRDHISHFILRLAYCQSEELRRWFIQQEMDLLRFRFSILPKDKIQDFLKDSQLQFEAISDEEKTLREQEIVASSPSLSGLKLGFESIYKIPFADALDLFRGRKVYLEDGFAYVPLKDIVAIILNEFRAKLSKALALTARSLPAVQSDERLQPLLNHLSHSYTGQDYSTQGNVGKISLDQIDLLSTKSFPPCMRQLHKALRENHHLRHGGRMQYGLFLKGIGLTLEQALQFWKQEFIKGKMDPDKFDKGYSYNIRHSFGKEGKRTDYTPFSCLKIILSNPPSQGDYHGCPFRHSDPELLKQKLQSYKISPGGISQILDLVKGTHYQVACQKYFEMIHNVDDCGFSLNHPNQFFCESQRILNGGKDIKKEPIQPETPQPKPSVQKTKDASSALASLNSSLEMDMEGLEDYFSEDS

CCCCCC/C=C\CCCCCCCC(=O)OCC1CCP(=O)(O)O1 (stereo not shown) [Pal-3 ccPA, palmitoleoyl 3 carba cPA]
decrease in depolarization level of C reflex [1, 6]: approximately 30% | decrease in depolarization level of C reflex [1, 7]: approximately 50% | decrease in depolarization level of C reflex [1, 8]: approximately 60% | change in discharge/depolarization level of cardiac nerves, particularly C reflex ([1]; anesthetized rats, i.v.): significant decrease | degree of decrease in C reflex depolarization compared with 2 carba derivatives ([1]; i.v., anesthetized rats): somewhat lower

CCCCCCCCCCCCCCCC(=O)OCC1COP(=O)(O)O1 (stereo not shown) [Pal-cPA]
suppressive effect on heart rate increase [2]: no consistent tendency could be confirmed; also recorded: not significant | blood pressure ([3]; after dose of 2 mg/Kg body weight i.v.): 130 mmHg | blood pressure ([3]; dose 300 μg/Kg body weight i.v., brief increase): around 100 mmHg | blood pressure ([3]; dose 2 mg/Kg i.v., thereafter up to 30 minutes after administration): around 130 mmHg

CN1CC[C@]23c4c5ccc(O)c4O[C@H]2[C@@H](O)C=C[C@H]3[C@H]1C5 [morphine]
effect on C-reflex potential [4]: selectively suppresses C-reflex potential alone

CCCCCC/C=C\CCCCCCCC(=O)OCC1COP(=O)(O)C1 (stereo not shown) [Pal-2 ccPA, palmitoleoyl 2 carba cPA]
decrease in depolarization level of C reflex [1, 6]: ≥ 30% | decrease in depolarization level of C reflex [1, 7]: approximately 60% | decrease in depolarization level of C reflex [1, 8]: approximately 70% | decrease in depolarization level of C reflex ([1]; 500 μg/Kg i.v., 10 to 15 minutes after administration): approximately 80% | change in discharge/depolarization level of cardiac nerves, particularly C reflex ([1]; anesthetized rats, i.v.): significant decrease

CCCCCCCC/C=C\CCCCCCCC(=O)OCC1COP(=O)(O)O1 (stereo not shown) [Ole-cPA, 1-oleoyl cyclic phosphatidic acid]
suppressive effect on heart rate increase [2]: significantly suppressed; also recorded: significantly observed | heart rate increase compared with control ([2]; dose 5 mg/Kg body weight i.v.): a half of or lower than that of the control | suppressive effect on heart rate increase after 20 minutes ([2]; dose 5 mg/Kg i.v., after 20 minutes): significant suppressive effect | duration of the suppressive effect on heart rate increase ([2]; dose higher than 1 mg/Kg body weight i.v.): ≥ 20 min | effects of administration on blood pressure ([3]; anesthetized rats, i.v.): not observed | blood pressure ([3]; dose 2 mg/Kg body weight or less i.v.): ~90 mmHg | decrease in depolarization level of C reflex ([1]; 2 mg/Kg i.v.): approximately 50% | changes in discharge level of Aδ reflex ([1]; after administration, compared with C reflex): inconsistent | change in discharge/depolarization level of cardiac nerves, particularly C reflex ([1]; anesthetized rats, i.v.): decreased | decrease in discharge level of C reflex ([1]; any concentration, 10 to 15 minutes after administration): approximately 1 mV | decrease in discharge level of C reflex ([1]; any concentration, 10 to 15 minutes after administration, relative to before administration): up to 40% | decrease in discharge level of C reflex ([1]; dose 2 mg/Kg, 30 minutes after administration, compared with before administration): approximately 20%

CCCCCC[C@@H]1C[C@@H]1CCCCCCCC(=O)OC[C@@H]1COP(=O)(O)O1 [PHYLPA]
effect on activity of DNA polymerase α [5]: suppresses
